These results are taken from patent publication US9839644B2, “Formulations and methods for treatment of metabolic syndrome” (ARKAY Therapeutics, LLC, priority 2014, dated 2017).

In one assay the test system is C57BL/6J mice. To be noted: mouse, in vivo; cited from earlier work.
The test system of assay [1] is male Sprague Dawley rats fed with High fructose diet or High fat diet (HFD). Conditions: rat, in vivo; cited from earlier work.
The subject of a further assay is C57BL/6J DIO mice. To be noted: Metformin alone (150 mg/Kg/day), 29-day study.
For assay [2], the system named is C57BL/6J diet-induced obese (DIO) mice. Conditions: cited from earlier work.
A further assay has as its system pancreatic beta cells. Conditions: cited from earlier work.
In assay [3] the test system is C57BL/6J obese mice. Conditions: cited from earlier work.
Assay [4] concerns C57BL/6J obese mice. To be noted: cited from earlier work. The source holds these as a separate data set.
For assay [5] the following is noted: clinical study; cited from earlier work.
The subject of the next assay is obese patients with T2DM. Conditions: translational preclinical models and obese patients with T2DM; cited from earlier work.
The test system of assay [6] is C57BL/6J diet-induced obese (DIO) mice. Conditions: cited from earlier work. The source holds these as a separate data set.
Assay [7] relates to subjects with impaired glucose metabolism. Conditions: 26 weeks; cited from earlier work.
In the next assay the test system is prediabetes patients. To be noted: cited from earlier work.

“Also recorded” adds a separate entry of the source.

Text for C57BL/6J DIO mice: Age and weight-matched C57BL/6J lean and DIO male mice were obtained from Jackson Labs (Bar Harbor, Me.). C57BL/6J DIO mice were fed high-fat diet (HFD) for 16 weeks to induce hepatic insulin resistance and pancreatic beta cell dysfunction. […] Lean control mice were maintained on D12450B (10% Kcal fat) Chow diet and DIO animals were maintained D12492 (60% KCal fat) research diets. Tap water was available ad libitum during the study. Animals were acclimated for a week. […] Test articles or the drugs were reconstituted in DMSO and 0.5% Methyl cellulose was used as the vehicle.
In a 29-day study, sub-maximal dose of Metformin (150 mg/Kg/day) and sub-maximal doses of Celecoxib (10 mg/Kg/day or 20 mg/Kg/day) were administered together or the vehicle was administered as an oral gavage in the morning and a sub-hypertensive dose of Valsartan (2 mg/Kg/day) or the vehicle was administered 6 hours later. Non-fasting BG measurements will be taken on Days 1, 15, 22, and 29. Animals were transferred to clean cages, food and water were uninterrupted. A blood sample was collected via tail nick and blood glucose was assessed using a hand-held Glucometer. Body weights were determined twice weekly for the duration of the study period.

On to `COc1ccc2c(c1)c(CC(=O)O)c(C)n2C(=O)c1ccc(Cl)cc1` [Indomethacin], for which, in the assay with C57BL/6J mice, the “HFD-induced obesity and insulin resistance” value is on record as “prevented”.
Turning to `CS(=O)(=O)Nc1ccc([N+](=O)[O-])cc1Oc1ccccc1` [Mesulid], in [1], the insulin sensitivity entry was “restore”, the low-grade inflammation entry is listed as “reverse” and the oxidative stress result was “reduce”.
`CN(C)C(=N)N=C(N)N` [Metformin]: in the assay on C57BL/6J DIO mice, the “elevated non-fasting BG levels” value is reported as “actually enhanced; also recorded: did not suppress”. For the same compound, in assay [2] (2 g/Kg glucose after 20 hour fast, 0.25% and 0.5% Metformin = 150 and 300 mg/Kg/day), the “glucose tolerance (OGTT)” value was “improves”. For the same compound, the HFD-induced insulin resistance entry in assay [2] (C57BL/6J DIO model) is listed as “ameliorates”.
Consider `CS(=O)(=O)Nc1ccc([N+](=O)[O-])cc1OC1CCCCC1` [NS-398], for which the beta cell dysfunction entry in the assay on pancreatic beta cells is listed as “reverses”.
Consider `NS(=O)(=O)c1ccc(-n2nc(C(F)(F)F)cc2-c2ccc(Cl)cc2)cc1` [SC58236], for which the HbA1c levels result in the assay with C57BL/6J obese mice [3] (C57BL/6J obese mice) is “reduces”. For the same compound, the “reduction of HbA1c levels” value with C57BL/6J obese mice [3] (selective Cox-2 inhibition) is listed as “about 0.4%”. In addition, in the assay with C57BL/6J obese mice [4] (6 hour fast, glucose 2 g/Kg), the “glucose tolerance (IPGTT)” value is reported as “improves”. The plasma insulin levels result in the assay on C57BL/6J obese mice [4] (after glucose injection) was “elevates”.
As to `O=C(Oc1ccccc1C(=O)O)c1ccccc1O` [Salsalate], the “reduction of glycosylated hemoglobin A1c, average” value in assay [5] is listed as 0.37%. For the same compound, the systemic insulin sensitivity entry in the assay with obese patients with T2DM is on record as “restore”.
In the case of `CCCCC(=O)N(Cc1ccc(-c2ccccc2-c2nnn[nH]2)cc1)[C@H](C(=O)O)C(C)C` [Valsartan], the systolic blood pressure result in [6] (1 mg/Kg/day, C57BL/6J obese mice) is recorded as “no effect”. In addition, the glucose tolerance result in assay [6] (overnight fast, IP 2 g/Kg glucose) is recorded as “improves”. For the same compound, the impaired glucose tolerance result in assay [6] (sub-hypertensive dose 1 mg/Kg/day, C57BL/6J obese mice) is “improves”. Moreover, in [7], the “beta cells function and insulin sensitivity” value was “improved”. The “onset of Type II diabetes” value with prediabetes patients is reported as “delay the onset”.
